Results: patent US20230055237A1, “COMPOUNDS AND METHODS FOR THE TREATMENT OF CYSTIC FIBROSIS” (Flatley Discovery Lab, LLC, priority 2019, published 2023)

Target: T1, CFTR (Homo sapiens, UniProt P13569, DEL508-508)
T1 construct: Primary CF airway epithelial cells were obtained from the UNC Cystic Fibrosis Tissue Procurement and Cell Culture Core; host or cells: primary CF airway epithelial cells, differentiated at the air-liquid interface
Experiment: Equivalent current assay in primary CF airway epithelial cells (NAUC, combination with 1st site corrector FDL169 or VX-809)
Assay type: cell-based
Conditions: 37° C., 24 h; for Nauc @ 3 μM: test compound 3 μM in combination with 1st site corrector VX-809 (3 μM); for Nauc @ 10 μM: test compound 10 μM in combination with 1st site corrector VX-809 (3 μM)

T1 sequence (P13569 with tags, fused parts or gaps DEL508-508): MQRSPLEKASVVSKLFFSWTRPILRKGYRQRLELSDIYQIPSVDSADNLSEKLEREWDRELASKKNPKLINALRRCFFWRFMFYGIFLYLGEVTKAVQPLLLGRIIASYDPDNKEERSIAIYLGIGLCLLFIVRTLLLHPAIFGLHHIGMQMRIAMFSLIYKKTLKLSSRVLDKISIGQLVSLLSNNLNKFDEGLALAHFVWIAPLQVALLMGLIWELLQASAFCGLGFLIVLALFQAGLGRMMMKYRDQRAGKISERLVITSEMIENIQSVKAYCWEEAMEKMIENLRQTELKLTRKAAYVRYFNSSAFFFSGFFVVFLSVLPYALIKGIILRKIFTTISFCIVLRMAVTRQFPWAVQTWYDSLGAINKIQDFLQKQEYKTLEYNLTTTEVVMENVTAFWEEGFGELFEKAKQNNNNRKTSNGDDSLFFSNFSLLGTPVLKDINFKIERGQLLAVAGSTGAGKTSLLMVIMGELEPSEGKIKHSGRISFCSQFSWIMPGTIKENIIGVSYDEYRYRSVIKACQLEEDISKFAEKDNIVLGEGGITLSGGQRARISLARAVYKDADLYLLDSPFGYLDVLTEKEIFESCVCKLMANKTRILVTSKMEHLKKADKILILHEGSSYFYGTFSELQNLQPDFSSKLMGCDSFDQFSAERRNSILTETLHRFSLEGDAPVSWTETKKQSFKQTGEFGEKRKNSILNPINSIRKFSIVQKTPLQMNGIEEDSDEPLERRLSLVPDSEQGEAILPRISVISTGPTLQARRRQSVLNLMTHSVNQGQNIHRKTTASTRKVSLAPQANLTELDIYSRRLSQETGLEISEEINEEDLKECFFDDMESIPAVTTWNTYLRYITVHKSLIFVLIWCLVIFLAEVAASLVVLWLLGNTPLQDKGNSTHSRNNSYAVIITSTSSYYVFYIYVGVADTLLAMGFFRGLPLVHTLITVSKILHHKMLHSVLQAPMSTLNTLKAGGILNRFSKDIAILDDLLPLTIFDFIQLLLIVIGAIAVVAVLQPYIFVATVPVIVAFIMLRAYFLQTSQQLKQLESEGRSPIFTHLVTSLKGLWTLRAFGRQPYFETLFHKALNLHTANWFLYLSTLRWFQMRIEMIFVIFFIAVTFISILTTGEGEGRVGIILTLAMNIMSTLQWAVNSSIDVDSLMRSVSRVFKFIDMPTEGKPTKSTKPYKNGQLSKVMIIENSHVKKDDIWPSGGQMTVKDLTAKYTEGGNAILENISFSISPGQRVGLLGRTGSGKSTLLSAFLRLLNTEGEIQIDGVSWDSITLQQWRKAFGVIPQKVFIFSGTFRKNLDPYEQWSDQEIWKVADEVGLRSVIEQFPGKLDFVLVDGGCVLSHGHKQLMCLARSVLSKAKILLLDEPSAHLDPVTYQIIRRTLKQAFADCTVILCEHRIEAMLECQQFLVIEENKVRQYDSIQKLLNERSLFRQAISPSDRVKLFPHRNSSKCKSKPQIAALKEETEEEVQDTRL

O=C(Nc1cncc(C(F)(F)F)n1)C1C2CC3(CC3)CN2C2(C(=O)Nc3c(Cl)cc(Cl)cc32)C1C(=O)O (stereo not drawn) [Example 21]
Nauc @ 3 μM: +++ (NAUC “+++” refers to an observed NAUC>170% of positive control)
Nauc @ 10 μM: +++ (NAUC “+++” refers to an observed NAUC>170% of positive control)

COc1cc(C(F)(F)F)cc(NC(=O)C2C3C[C@@](O)(C(F)(F)F)CN3C3(C(=O)Nc4c(Cl)cc(Cl)cc43)C2C(=O)O)n1 (stereo partly drawn) [Example 22]
Nauc @ 3 μM: ++ (NAUC “++” refers to an observed NAUC 170-140% of positive control)
Nauc @ 10 μM: +++ (NAUC “+++” refers to an observed NAUC>170% of positive control)

O=C(Nc1cncc(C(F)(F)F)n1)C1C2CC(F)(F)CN2C2(C(=O)Nc3c(Cl)cc(Cl)cc32)C1C(=O)O (stereo not drawn) [Example 23]
Nauc @ 3 μM: ++ (NAUC “++” refers to an observed NAUC 170-140% of positive control)
Nauc @ 10 μM: + (NAUC “+” refers to an observed NAUC <140% of positive control)

O=C(Nc1cc(Cl)cc(Cl)c1)C1CN(C(=O)CCc2ccccc2)C2(C(=O)Nc3c(Cl)cc(Cl)cc32)C1C(=O)O (stereo not drawn) [Example 24]
Nauc @ 3 μM: +++ (NAUC “+++” refers to an observed NAUC>170% of positive control)
Nauc @ 10 μM: + (NAUC “+” refers to an observed NAUC <140% of positive control)

O=C(Nc1cc(Cl)cc(Cl)c1)C1CN(S(=O)(=O)CCc2ccccc2)C2(C(=O)Nc3c(Cl)cc(Cl)cc32)C1C(=O)O (stereo not drawn) [Example 25]
Nauc @ 3 μM: + (NAUC “+” refers to an observed NAUC <140% of positive control)
Nauc @ 10 μM: ++ (NAUC “++” refers to an observed NAUC 170-140% of positive control)

CCC(=O)N1C(C(C)C)C(C(=O)Nc2cc(Cl)cc(Cl)c2)C(C(=O)O)C12C(=O)Nc1c(Cl)cc(Cl)cc12 (stereo not drawn) [Example 26]
Nauc @ 3 μM: ++ (NAUC “++” refers to an observed NAUC 170-140% of positive control)
Nauc @ 10 μM: +++ (NAUC “+++” refers to an observed NAUC>170% of positive control)

O=C(Nc1cc(Cl)cc(Cl)c1)C1C(C(=O)O)C(c2cc(Cl)cc(Cl)c2)N2CCCC12 (stereo not drawn) [Example 27]
Nauc @ 3 μM: ++ (NAUC “++” refers to an observed NAUC 170-140% of positive control)
Nauc @ 10 μM: ++ (NAUC “++” refers to an observed NAUC 170-140% of positive control)

O=C(Nc1cncc(C(F)(F)F)n1)C1C2CCCN2C2(C(=O)Nc3c(Cl)cc(Cl)cc32)C1C(=O)O (stereo not drawn) [Example 29]
Nauc @ 3 μM: ++ (NAUC “++” refers to an observed NAUC 170-140% of positive control)
Nauc @ 10 μM: +++ (NAUC “+++” refers to an observed NAUC>170% of positive control)

O=C(Nc1cc(Cl)cc(Cl)c1)C1CN(C(=O)Nc2ccccc2)C2(C(=O)Nc3c(Cl)cc(Cl)cc32)C1C(=O)O (stereo not drawn) [Example 30]
Nauc @ 3 μM: + (NAUC “+” refers to an observed NAUC <140% of positive control)
Nauc @ 10 μM: ++ (NAUC “++” refers to an observed NAUC 170-140% of positive control)

O=C(Nc1cc(Cl)cc(Cl)c1)C1CN(C(=O)NCc2ccccc2)C2(C(=O)Nc3c(Cl)cc(Cl)cc32)C1C(=O)O (stereo not drawn) [Example 31]
Nauc @ 3 μM: + (NAUC “+” refers to an observed NAUC <140% of positive control)
Nauc @ 10 μM: +++ (NAUC “+++” refers to an observed NAUC>170% of positive control)

O=C(Nc1cc(Cl)cc(Cl)c1)C1C(COCc2ccccc2)NC2(C(=O)Nc3c(Cl)cc(Cl)cc32)C1C(=O)O (stereo not drawn) [Example 32]
Nauc @ 3 μM: +++ (NAUC “+++” refers to an observed NAUC>170% of positive control)
Nauc @ 10 μM: +++ (NAUC “+++” refers to an observed NAUC>170% of positive control)

CC(C)C1NC2(C(=O)Nc3c(Cl)cc(Cl)cc32)C(C(=O)O)C1C(=O)Nc1cc(Cl)cc(Cl)c1 (stereo not drawn) [Example 33]
Nauc @ 3 μM: +++ (NAUC “+++” refers to an observed NAUC>170% of positive control)
Nauc @ 10 μM: +++ (NAUC “+++” refers to an observed NAUC>170% of positive control)

O=C(Nc1cc(Cl)cc(Cl)c1)C1C(Cc2ccccc2)NC2(C(=O)Nc3c(Cl)cc(Cl)cc32)C1C(=O)O (stereo not drawn) [Example 34]
Nauc @ 3 μM: +++ (NAUC “+++” refers to an observed NAUC>170% of positive control)
Nauc @ 10 μM: ++ (NAUC “++” refers to an observed NAUC 170-140% of positive control)

O=C(Nc1cc(Cl)cc(Cl)c1)C1C(C(F)(F)F)NC2(C(=O)Nc3c(Cl)cc(Cl)cc32)C1C(=O)O (stereo not drawn) [Example 35]
Nauc @ 3 μM: +++ (NAUC “+++” refers to an observed NAUC>170% of positive control)
Nauc @ 10 μM: +++ (NAUC “+++” refers to an observed NAUC>170% of positive control)

CC(=O)N1C(COCc2ccccc2)C(C(=O)Nc2cc(Cl)cc(Cl)c2)C(C(=O)O)C12C(=O)Nc1c(Cl)cc(Cl)cc12 (stereo not drawn) [Example 36]
Nauc @ 3 μM: + (NAUC “+” refers to an observed NAUC <140% of positive control)
Nauc @ 10 μM: +++ (NAUC “+++” refers to an observed NAUC>170% of positive control)

O=C(Nc1cc(Cl)cc(Cl)c1F)C1C2CCCN2C2(C(=O)Nc3c(Cl)cc(Cl)cc32)C1C(=O)O (stereo not drawn) [Example 37]
Nauc @ 3 μM: +++ (NAUC “+++” refers to an observed NAUC>170% of positive control)
Nauc @ 10 μM: +++ (NAUC “+++” refers to an observed NAUC>170% of positive control)

CC(=O)N1C(C(C)C)C(C(=O)Nc2cc(Cl)cc(Cl)c2)C(C(=O)O)C12C(=O)Nc1c(Cl)cc(Cl)cc12 (stereo not drawn) [Example 38]
Nauc @ 3 μM: + (NAUC “+” refers to an observed NAUC <140% of positive control)
Nauc @ 10 μM: ++ (NAUC “++” refers to an observed NAUC 170-140% of positive control)

O=C(Nc1cc(Cl)cc(Cl)c1)C1C(C(F)(F)c2ccccc2)NC2(C(=O)Nc3c(Cl)cc(Cl)cc32)C1C(=O)O (stereo not drawn) [Example 39]
Nauc @ 3 μM: +++ (NAUC “+++” refers to an observed NAUC>170% of positive control)
Nauc @ 10 μM: +++ (NAUC “+++” refers to an observed NAUC>170% of positive control)

O=C(Nc1cc(Cl)cc(Cl)c1)C1C(C(F)(F)F)NC2(C(=O)Nc3c(Cl)cc(Cl)cc32)C1C(=O)O (stereo not drawn) [Example 40]
Nauc @ 3 μM: +++ (NAUC “+++” refers to an observed NAUC>170% of positive control)
Nauc @ 10 μM: +++ (NAUC “+++” refers to an observed NAUC>170% of positive control)

O=C(Nc1cc(Cl)cc(Cl)c1)C1CN(CC(F)(F)F)C2(C(=O)Nc3c(Cl)cc(Cl)cc32)C1C(=O)O (stereo not drawn) [Example 41]
Nauc @ 3 μM: + (NAUC “+” refers to an observed NAUC <140% of positive control)
Nauc @ 10 μM: ++ (NAUC “++” refers to an observed NAUC 170-140% of positive control)

O=C(Nc1cc(Cl)cc(Cl)c1F)C1C2CC(F)(F)CN2C2(C(=O)Nc3c(Cl)cc(Cl)cc32)C1C(=O)O (stereo not drawn) [Example 42]
Nauc @ 3 μM: +++ (NAUC “+++” refers to an observed NAUC>170% of positive control)
Nauc @ 10 μM: +++ (NAUC “+++” refers to an observed NAUC>170% of positive control)

CN1C(C(F)(F)F)C(C(=O)Nc2cc(Cl)cc(Cl)c2)C(C(=O)O)C12C(=O)Nc1c(Cl)cc(Cl)cc12 (stereo not drawn) [Example 43]
Nauc @ 3 μM: +++ (NAUC “+++” refers to an observed NAUC>170% of positive control)
Nauc @ 10 μM: ++ (NAUC “++” refers to an observed NAUC 170-140% of positive control)

CC(C)(C)c1cccc(CCNC(=O)C2C(C(F)(F)F)NC3(C(=O)Nc4c(Cl)cc(Cl)cc43)C2C(=O)O)c1 (stereo not drawn) [Example 45]
Nauc @ 3 μM: +++ (NAUC “+++” refers to an observed NAUC>170% of positive control)
Nauc @ 10 μM: +++ (NAUC “+++” refers to an observed NAUC>170% of positive control)

CC(C)(C)c1ccc(CCNC(=O)C2C3CC(F)(F)CN3C3(C(=O)Nc4c(Cl)cc(Cl)cc43)C2C(=O)O)cc1 (stereo not drawn) [Example 46]
Nauc @ 3 μM: +++ (NAUC “+++” refers to an observed NAUC>170% of positive control)
Nauc @ 10 μM: +++ (NAUC “+++” refers to an observed NAUC>170% of positive control)

Cc1ccccc1CCNC(=O)C1C2CC(F)(F)CN2C2(C(=O)Nc3c(Cl)cc(Cl)cc32)C1C(=O)O (stereo not drawn) [Example 47]
Nauc @ 3 μM: ++ (NAUC “++” refers to an observed NAUC 170-140% of positive control)
Nauc @ 10 μM: +++ (NAUC “+++” refers to an observed NAUC>170% of positive control)

Cc1cccc(CCNC(=O)C2C3CC(F)(F)CN3C3(C(=O)Nc4c(Cl)cc(Cl)cc43)C2C(=O)O)c1 (stereo not drawn) [Example 48]
Nauc @ 3 μM: ++ (NAUC “++” refers to an observed NAUC 170-140% of positive control)
Nauc @ 10 μM: +++ (NAUC “+++” refers to an observed NAUC>170% of positive control)

Cc1ccc(CCNC(=O)C2C3CC(F)(F)CN3C3(C(=O)Nc4c(Cl)cc(Cl)cc43)C2C(=O)O)cc1 (stereo not drawn) [Example 49]
Nauc @ 3 μM: ++ (NAUC “++” refers to an observed NAUC 170-140% of positive control)
Nauc @ 10 μM: +++ (NAUC “+++” refers to an observed NAUC>170% of positive control)

O=C(NCCc1ccccc1Cl)C1C2CC(F)(F)CN2C2(C(=O)Nc3c(Cl)cc(Cl)cc32)C1C(=O)O (stereo not drawn) [Example 50]
Nauc @ 3 μM: ++ (NAUC “++” refers to an observed NAUC 170-140% of positive control)
Nauc @ 10 μM: +++ (NAUC “+++” refers to an observed NAUC>170% of positive control)

O=C(NCCc1cccc(Cl)c1)C1C2CC(F)(F)CN2C2(C(=O)Nc3c(Cl)cc(Cl)cc32)C1C(=O)O (stereo not drawn) [Example 51]
Nauc @ 3 μM: +++ (NAUC “+++” refers to an observed NAUC>170% of positive control)
Nauc @ 10 μM: +++ (NAUC “+++” refers to an observed NAUC>170% of positive control)

O=C(NCCc1ccc(Cl)cc1)C1C2CC(F)(F)CN2C2(C(=O)Nc3c(Cl)cc(Cl)cc32)C1C(=O)O (stereo not drawn) [Example 52]
Nauc @ 3 μM: ++ (NAUC “++” refers to an observed NAUC 170-140% of positive control)
Nauc @ 10 μM: +++ (NAUC “+++” refers to an observed NAUC>170% of positive control)

CC(C)(C)c1cccc(CCNC(=O)C2C3CCCN3C3(C(=O)Nc4c(Cl)cc(Cl)cc43)C2C(=O)O)c1 (stereo not drawn) [Example 53]
Nauc @ 3 μM: +++ (NAUC “+++” refers to an observed NAUC>170% of positive control)
Nauc @ 10 μM: +++ (NAUC “+++” refers to an observed NAUC>170% of positive control)

CC(C)(C)c1cccc(CNC(=O)C2C3CC(F)(F)CN3C3(C(=O)Nc4c(Cl)cc(Cl)cc43)C2C(=O)O)c1 (stereo not drawn) [Example 54]
Nauc @ 3 μM: + (NAUC “+” refers to an observed NAUC <140% of positive control)
Nauc @ 10 μM: +++ (NAUC “+++” refers to an observed NAUC>170% of positive control)

O=C(Nc1cc(C(F)(F)F)cc(C(F)(F)F)n1)C1C2C[C@@](O)(C(F)(F)F)CN2C2(C(=O)Nc3c(Cl)cc(Cl)cc32)C1C(=O)O (stereo partly drawn) [Example 55]
Nauc @ 3 μM: ++ (NAUC “++” refers to an observed NAUC 170-140% of positive control)
Nauc @ 10 μM: + (NAUC “+” refers to an observed NAUC <140% of positive control)
